Paper PMC9714921 (PLOS Pathogens, 2022)
Where “and” joins values, the source holds several entries; their conditions need not be identical. Identical values can stand only once. Counter-ions that a name gives are not always drawn. Like-named read-outs stand apart in the source and are kept apart here.

Legend:
Dme-ACR-16 = Dme-ACR-16 (Dracunculus medinensis, UniProt A0A0N4U0T6); assay: cell-based; assay type: cell-based
Description: (§1) cRNA for oocyte injection was prepared with the mMESSAGE mMACHINE T7 kit following manufacturers protocol (Ambion, USA). Concentration was determined using a Nanodrop spectrophotometer. Desired subunit combinations with associated accessory proteins were mixed and diluted with nuclease-free water to a final concentration of 250 ng/uL for each construct.
(§2) Adult female X. laevis oocyte extraction was performed in accordance with the McGill University Animal Use Protocol 2015–7758 following standard protocol. Briefly, frog ovary lobes were placed in a Ca^2+-free OR2 solution (82 mM NaCl, 2 mM KCl, 1 mM MgCl2, 5 mM HEPES buffer, pH 7.3) and manually divided into clusters of <10 oocytes with thin tweezers followed by a 90-minute incubation in 10 mg/mL collagenase type II (Sigma-Aldrich, USA). Oocytes were washed in Ca^2+-free OR2 and placed ND96 solution (NaCl 96 mM, KCl 2 mM, CaCl2 1.8 mM, MgCl2 1 mM and HEPES 5 mM, pH 7.3) supplemented with sodium pyruvate 2.5 mM [86] and incubated at 18°C until cRNA injection. Oocytes were injected with 50 nL (12.5 ng of each injected gene) of the desired cRNA subunit and accessory protein combination mix with the NanojectII (Drummond Scientific, USA). Following injection, oocytes were incubated in ND96 buffer at 18°C until electrophysiology. All electrophysiology was conducted two days post-injection, except for the expression analysis assay in which oocytes were measured every day after injection for three consecutive days.
(§3) All drugs were dissolved in recording solution (NaCl 100 mM, KCl 2.5 mM, CaCl2 1 mM, HEPES 5 mM, pH 7.3) to a stock concentration of 10 mM and diluted to their final recording concentrations. Oxantel and bephenium were first dissolved in DMSO to ensure a final recording concentration contained less than 0.1% DMSO. For agonist profiling, all drugs were diluted to a concentration of 100 μM.
(§4) Oocytes were placed individually in an RC3Z chamber (Harvard Apparatus, USA) submerged in recording solution (NaCl 100 mM, KCl 2.5 mM, CaCl2 1 mM, HEPES 5 mM, pH 7.3). The RC3Z chamber was connected to a perfusion system containing recording solution and ligand solutions. Pulled glass capillaries (World Precision Instruments, USA) were filled with 3M KCl and the tips clipped and checked for appropriate resistance (between 0.5 and 5 MΩ). A 3M KCl agar bridge grounded the oocyte bath chamber. Measurements were made using an Axon Axoclamp 900A amplifier with Digidata1550M. […] Ligand solutions were applied to the oocytes with an approximate flow rate of 1.2 m/s and current responses measured. Oocytes were exposed to the ligand solution until a distinct current peak was observed followed by a wash with the recording solution until current returned to baseline for a minimum of 10 seconds until the next ligand exposure. For BAPTA-AM exposed oocytes, oocytes were incubated in 100 μM BAPTA-AM for four hours prior to electrophysiology recording. Data was analyzed using Clampex 9.2 (Axon Instruments, USA) and statistical analysis and graphs produced in Prism (GraphPad version 9.1). T-tests were used to compare responses with error bars representing standard error. For concentration-response curves, individual oocyte current response to the different ligand concentrations were normalized to the response obtained with 300 μM. Data was fit using the Graphpad “log(agonist) vs normalized response–variable slope” equation, with 95% confidence intervals being reported. […] For examples of oocyte responses, recordings were filtered in Clampfit using the lowband pass at 40 Hz cutoff.

Asu-ACR-16 = Asu-ACR-16 (Ascaris suum, UniProt F1KYJ9); assay: cell-based; assay type: cell-based
Description: as §1, §2, §3, §4

Tzc-ACR-16 = Tzc-ACR-16 (Thelazia callipaeda, UniProt A0A158RD20); assay: cell-based; assay type: cell-based
Description: as §1, §2, §3, §4

Gpu-ACR-16 = assay: Voltage-clamp electrophysiology, N-AChR reconstituted in Xenopus laevis oocytes; assay type: cell-based, Gonglyonema pulchrum; settings: for response to 100 μM ligand relative to 100 μM ACh (in words): agonist panel, Fig 5C; for current response to 100 μM nicotine: co-injected: H. contortus RIC-3
Description: as §1, §2, §3, §4

[1] = biological target: Asu-ACR-16-bmaICL chimera (Ascaris suum; Brugia malayi, UniProt A0A4E9FSR7+F1KYJ9); assay type: cell-based, A. suum (B. malayi ICL); settings: compared to Asu-ACR-16 profile, S3D Fig
Description: B. malayi acr-16 and accessory proteins ric-3, unc-50, unc-74 and molo-1 were cloned from adult female B. malayi cDNA received as a gift from Dr. T. Geary using the primers described in S1 Table. B. malayi eat-18 was prepared from two overlapping oligonucleotide primers. Other subunits were synthesized from their predicted genome sequence (Gene Universal, USA) (S2 Table). […] All sequences were cloned into the pTD2 oocyte expression vector. Asu-ACR-16 and Tzc-ACR-16 chimeras were constructed using appropriate restriction enzymes, reciprocal exchange through ligation and confirmed by sequencing (McLab, USA).
as §1, §2
All drugs were dissolved in recording solution (NaCl 100 mM, KCl 2.5 mM, CaCl2 1 mM, HEPES 5 mM, pH 7.3) to a stock concentration of 10 mM and diluted to their final recording concentrations. […]
Oocytes were placed individually in an RC3Z chamber (Harvard Apparatus, USA) submerged in recording solution (NaCl 100 mM, KCl 2.5 mM, CaCl2 1 mM, HEPES 5 mM, pH 7.3). […] Ligand solutions were applied to the oocytes with an approximate flow rate of 1.2 m/s and current responses measured. […] Data was analyzed using Clampex 9.2 (Axon Instruments, USA) and statistical analysis and graphs produced in Prism (GraphPad version 9.1). […]

Bma-ACR-16 = assay type: cell-based, Brugia malayi; settings: co-injected: H. contortus RIC-3
Description: as §1, §2, §3, §4

C. elegans N-AChR = test system: C. elegans N-AChR; set-up: method as in Charvet et al., 2018 [40]; settings: accessory protein Ric-3; ref Charvet et al., 2018 [40]; read-out: EC50 μM NIC; cited from earlier work
A celanicum N-AChR = settings: accessory protein Ric-3; ref [33]; read-out: EC50 μM NIC; cited from earlier work
N. americanus N-AChR = settings: accessory protein Ric-3; ref [33]; read-out: EC50 μM NIC; cited from earlier work
P. equorum N-AChR = settings: accessory protein Ric-3; ref [40]; read-out: EC50 μM NIC; cited from earlier work

Tzc-ACR-16, sequence (A0A158RD20 entry or part of it): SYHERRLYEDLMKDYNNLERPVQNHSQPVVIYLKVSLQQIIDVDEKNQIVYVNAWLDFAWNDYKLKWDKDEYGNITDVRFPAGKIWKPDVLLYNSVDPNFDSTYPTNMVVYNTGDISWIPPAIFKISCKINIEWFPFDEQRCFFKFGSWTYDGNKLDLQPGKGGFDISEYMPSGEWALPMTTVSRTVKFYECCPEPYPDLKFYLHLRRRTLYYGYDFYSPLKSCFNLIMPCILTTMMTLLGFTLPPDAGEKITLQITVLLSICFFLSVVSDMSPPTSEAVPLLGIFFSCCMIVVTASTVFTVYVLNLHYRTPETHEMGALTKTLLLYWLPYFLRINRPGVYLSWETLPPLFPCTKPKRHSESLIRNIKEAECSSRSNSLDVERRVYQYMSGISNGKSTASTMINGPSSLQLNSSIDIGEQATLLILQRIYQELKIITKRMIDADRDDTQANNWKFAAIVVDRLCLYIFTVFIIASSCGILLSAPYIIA
Dme-ACR-16, sequence (A0A0N4U0T6 entry or part of it): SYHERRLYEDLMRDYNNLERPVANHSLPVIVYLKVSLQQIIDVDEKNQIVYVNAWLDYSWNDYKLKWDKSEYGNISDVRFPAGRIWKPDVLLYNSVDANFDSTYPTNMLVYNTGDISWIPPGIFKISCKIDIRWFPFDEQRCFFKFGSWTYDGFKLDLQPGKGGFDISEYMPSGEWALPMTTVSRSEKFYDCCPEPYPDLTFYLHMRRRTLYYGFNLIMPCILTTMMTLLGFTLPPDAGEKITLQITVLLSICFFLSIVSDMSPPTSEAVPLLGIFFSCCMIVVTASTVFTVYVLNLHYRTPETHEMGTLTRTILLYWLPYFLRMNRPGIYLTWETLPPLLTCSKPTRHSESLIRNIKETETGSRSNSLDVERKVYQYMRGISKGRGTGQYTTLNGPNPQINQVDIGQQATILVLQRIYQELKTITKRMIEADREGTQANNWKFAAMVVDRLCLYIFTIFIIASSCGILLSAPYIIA

Row | Compound | response to 100 μM ligand relative to 100 μM ACh (in words) (Dme-ACR-16; agonist panel, Fig 5B) | response to 100 μM ligand relative to 100 μM ACh (in words) (Asu-ACR-16; agonist panel, Fig 5A) | response to 100 μM ligand relative to 100 μM ACh (in words) (Tzc-ACR-16; agonist panel, Fig 5D) | response to 100 μM ligand relative to 100 μM ACh (in words) (Gpu-ACR-16) | other results
1 | C[N+](C)(CCOc1ccccc1)Cc1ccccc1 [BEPH, bephenium] | No response | No response | No response | No response | –
2 | C[N+](C)(C)CC(=O)O [BET, betaine] | No response | No response | No response | No response | –
3 | NCCc1ccc(O)c(O)c1 [DA, dopamine] | No response | No response | No response | No response | –
4 | C[N+]1(C)CCN(c2ccccc2)CC1 [DMPP, dimethylphenylpiperazinium] | smaller response | smaller response | smaller response | smaller response | response to 100 μM ligand relative to acetylcholine (in words) [1]: higher responses
5 | CNC[C@H](O)c1ccc(O)c(O)c1 [EPI, epinephrine] | – | – | – | No response | response to 100 μM ligand relative to 100 μM ACh (in words) (Dme-ACR-16): No response; response to 100 μM ligand relative to 100 μM ACh (in words) (Asu-ACR-16): No response; response to 100 μM ligand relative to 100 μM ACh (in words) (Tzc-ACR-16): No response
6 | c1ccc([C@H]2CN3CCSC3=N2)cc1 [LEV, (-)-tetramisole hydrochloride] | No response | No response | No response | No response | –
7 | Cc1ccsc1/C=C/C1=NCCCN1C [MOR, morantel] | minimal response | minimal response | minimal response | minimal response | –
8 | CN1CCC[C@H]1c1cccnc1 [NIC, (-)-nicotine hydrogen tartrate] | – | – | – | large response | current response to 100 μM nicotine (Bma-ACR-16): 0 ± 0 nA and no measurable current; EC50 (C. elegans N-AChR): 15.1 ± 1.3 µM; EC50 (A celanicum N-AChR): 24.4 ± 2.89 µM; EC50 (N. americanus N-AChR): 598 ± 59.1 µM; EC50 (P. equorum N-AChR): 2.9 ± 0.5 µM; EC50 (Dme-ACR-16): 3.8 µM; current response to 100 μM nicotine (Dme-ACR-16): 2025 ± 81 nA and 2000–2200 nA; response to 100 μM ligand relative to 100 μM ACh (in words) (Dme-ACR-16): large response; EC50 (Asu-ACR-16): 5.1 µM; current response to 100 μM nicotine (Asu-ACR-16): 2067 ± 74 nA and 2000–2200 nA; response to 100 μM ligand relative to 100 μM ACh (in words) (Asu-ACR-16): large response; EC50 (Tzc-ACR-16): 4.9 µM; current response to 100 μM nicotine (Tzc-ACR-16): 481 ± 45 nA and 400–600 nA; response to 100 μM ligand relative to 100 μM ACh (in words) (Tzc-ACR-16): large response; current response to 100 μM nicotine (Gpu-ACR-16): ~ 1400 nA; current response to 100 μM nicotine (Gpu-ACR-16; listed as nicotine): 1231 ± 98 nA; EC50 (Gpu-ACR-16; concentration-response 0.3-300 μM, normalized to 300 μM, with 95% CI, read-out: EC50 NIC): 2.1 µM
9 | NC[C@H](O)c1ccc(O)c(O)c1 [NOR, norepinephrine] | No response | No response | No response | No response | –
10 | CN1CCCN=C1/C=C/c1cccc(O)c1 [OXA, oxantel] | smaller response | smaller response | smaller response | smaller response | –
11 | CN1CCCN=C1/C=C/c1cccs1 [PYR, pyrantel] | minimal response | minimal response | minimal response | minimal response | –
12 | NCCc1ccc(O)cc1 [TYR, tyramine] | No response | No response | No response | No response | –
